The values below come from ChEMBL document CHEMBL3044907, “Sensitivity of Fusarium verticillioides isolates from rice to a novel cyanoacrylate fungicide” (Crop Prot, 2012).

In data set [1] the test system is Fusarium verticillioides. The data set is described as follows: Fungicidal activity against Fusarium verticilliodes isolate YZ10 in rice seeds harvested from bakane diseased plants assessed as number of seedlings abnormally elongated or exhibiting symptoms of damping-off at 6.25 ug/ml at 30 degC incubated for 72 hr measured after 3 days under greenhouse trials (reference value: 49.2%). The format is functional.

The test system of data set [2] is Fusarium verticillioides. Nature of the data set: Fungicidal activity against Fusarium verticilliodes isolate JS05 in rice seeds harvested from bakane diseased plants assessed as number of seedlings abnormally elongated or exhibiting symptoms of damping-off at 12.5 ug/ml at 30 degC incubated for 72 hr measured after 3 days under greenhouse trials (reference value: 36.4%). Format: functional.

Data set [3] concerns Fusarium verticillioides. The data set is described as follows: Fungicidal activity against Fusarium verticilliodes isolate JS06 in rice seeds harvested from bakane diseased plants assessed as number of seedlings abnormally elongated or exhibiting symptoms of damping-off at 12.5 ug/ml at 30 degC incubated for 72 hr measured after 3 days under greenhouse trials (reference value: 25.2%). The format is functional.

In data set [4] the test system is Fusarium verticillioides. Nature of the data set: Fungicidal activity against Fusarium verticilliodes isolate YZ07 in rice seeds harvested from bakane diseased plants assessed as number of seedlings abnormally elongated or exhibiting symptoms of damping-off at 8.33 ug/ml at 30 degC incubated for 72 hr measured after 3 days under greenhouse trials (reference value: 43.2%). The format is functional.

Data set [5] concerns Fusarium verticillioides. The data set is described as follows: Fungicidal activity against Fusarium verticilliodes isolate N06 in rice seeds harvested from bakane diseased plants assessed as number of seedlings abnormally elongated or exhibiting symptoms of damping-off at 25 ug/ml at 30 degC incubated for 72 hr measured after 3 days under greenhouse trials (reference value: 9.6%). The format is functional.

For data set [6], the system named is Fusarium verticillioides. Nature of the data set: Fungicidal activity against Fusarium verticilliodes isolate N06 in rice seeds harvested from bakane diseased plants assessed as number of seedlings abnormally elongated or exhibiting symptoms of damping-off at 6.25 ug/ml at 30 degC incubated for 72 hr measured after 3 days under greenhouse trials (reference value: 9.6%). Format: functional.

The subject of data set [7] is Fusarium verticillioides. The data set is described as follows: Fungicidal activity against Fusarium verticilliodes isolate JS07 in rice seeds harvested from bakane diseased plants assessed as number of seedlings abnormally elongated or exhibiting symptoms of damping-off at 6.25 ug/ml at 30 degC incubated for 72 hr measured after 3 days under greenhouse trials (reference value: 33.8%). Format: functional.

The test system of data set [8] is Fusarium verticillioides. The data set is described as follows: Fungicidal activity against Fusarium verticilliodes isolate N05 in rice seeds harvested from bakane diseased plants assessed as number of seedlings abnormally elongated or exhibiting symptoms of damping-off at 8.33 ug/ml at 30 degC incubated for 72 hr measured after 3 days under greenhouse trials (reference value: 6.2%). Format: functional.

The subject of data set [9] is Fusarium verticillioides. The data set is described as follows: Fungicidal activity against Fusarium verticilliodes isolate JS09 in rice seeds harvested from bakane diseased plants assessed as number of seedlings abnormally elongated or exhibiting symptoms of damping-off at 8.33 ug/ml at 30 degC incubated for 72 hr measured after 3 days under greenhouse trials (reference value: 32.6%). Format: functional.

In data set [10] the test system is Fusarium verticillioides. Nature of the data set: Fungicidal activity against Fusarium verticilliodes isolate JS04 in rice seeds harvested from bakane diseased plants assessed as number of seedlings abnormally elongated or exhibiting symptoms of damping-off at 8.33 ug/ml at 30 degC incubated for 72 hr measured after 3 days under greenhouse trials (reference value: 16.2%). Format: functional.

In data set [11] the test system is Fusarium verticillioides. The data set is described as follows: Fungicidal activity against Fusarium verticilliodes isolate YZ26 in rice seeds harvested from bakane diseased plants assessed as number of seedlings abnormally elongated or exhibiting symptoms of damping-off at 6.25 ug/ml at 30 degC incubated for 72 hr measured after 3 days under greenhouse trials (reference value: 49.3%). The format is functional.

Data set [12] deals with Fusarium verticillioides. Nature of the data set: Fungicidal activity against Fusarium verticilliodes isolate JS06 in rice seeds harvested from bakane diseased plants assessed as number of seedlings abnormally elongated or exhibiting symptoms of damping-off at 8.33 ug/ml at 30 degC incubated for 72 hr measured after 3 days under greenhouse trials (reference value: 25.2%). The format is functional.

The subject of data set [13] is Fusarium verticillioides. The data set is described as follows: Fungicidal activity against Fusarium verticilliodes isolate JS05 in rice seeds harvested from bakane diseased plants assessed as number of seedlings abnormally elongated or exhibiting symptoms of damping-off at 25 ug/ml at 30 degC incubated for 72 hr measured after 3 days under greenhouse trials (reference value: 36.4%). Format: functional.

Data set [14] has as its system Fusarium verticillioides. Nature of the data set: Fungicidal activity against Fusarium verticilliodes isolate N06 in rice seeds harvested from bakane diseased plants assessed as number of seedlings abnormally elongated or exhibiting symptoms of damping-off at 12.5 ug/ml at 30 degC incubated for 72 hr measured after 3 days under greenhouse trials (reference value: 9.6%). Format: functional.

The test system of data set [15] is Fusarium verticillioides. The data set is described as follows: Fungicidal activity against Fusarium verticilliodes isolate YZ12 in rice seeds harvested from bakane diseased plants assessed as number of seedlings abnormally elongated or exhibiting symptoms of damping-off at 6.25 ug/ml at 30 degC incubated for 72 hr measured after 3 days under greenhouse trials (reference value: 45.8%). The format is functional.

In another data set the test system is Oryza sativa. The data set is described as follows: Effect on germination of healthy Oryza sativa (rice) seed cultivar Liangyou 6326 at 6.25 to 25 ug/ml at 25 degC after 72 hr. The format is ADME, organism-based. The conditions noted are these: in vivo.
Data set [16] concerns Fusarium verticillioides. Nature of the data set: Fungicidal activity against Fusarium verticilliodes isolate JS08 in rice seeds harvested from bakane diseased plants assessed as number of seedlings abnormally elongated or exhibiting symptoms of damping-off at 8.33 ug/ml at 30 degC incubated for 72 hr measured after 3 days under greenhouse trials (reference value: 13.0%). Format: functional.

The subject of data set [17] is Fusarium verticillioides. The data set is described as follows: Fungicidal activity against Fusarium verticilliodes isolate YZ10 in rice seeds harvested from bakane diseased plants assessed as number of seedlings abnormally elongated or exhibiting symptoms of damping-off at 12.5 ug/ml at 30 degC incubated for 72 hr measured after 3 days under greenhouse trials (reference value: 49.2%). Format: functional.

For data set [18], the system named is Fusarium verticillioides. Nature of the data set: Fungicidal activity against Fusarium verticilliodes isolate YZ07 in rice seeds harvested from bakane diseased plants assessed as number of seedlings abnormally elongated or exhibiting symptoms of damping-off at 12.5 ug/ml at 30 degC incubated for 72 hr measured after 3 days under greenhouse trials (reference value: 43.2%). The format is functional.

Data set [19] deals with Fusarium verticillioides. The data set is described as follows: Fungicidal activity against Fusarium verticilliodes isolate YZ11 in rice seeds harvested from bakane diseased plants assessed as number of seedlings abnormally elongated or exhibiting symptoms of damping-off at 6.25 ug/ml at 30 degC incubated for 72 hr measured after 3 days under greenhouse trials (reference value: 33.7%). The format is functional.

Data set [20] concerns Fusarium verticillioides. The data set is described as follows: Fungicidal activity against Fusarium verticilliodes isolate YZ08 in rice seeds harvested from bakane diseased plants assessed as number of seedlings abnormally elongated or exhibiting symptoms of damping-off at 8.33 ug/ml at 30 degC incubated for 72 hr measured after 3 days under greenhouse trials (reference value: 19.8%). The format is functional.

In data set [21] the test system is Fusarium verticillioides. Nature of the data set: Fungicidal activity against Fusarium verticilliodes isolate N02 in rice seeds harvested from bakane diseased plants assessed as number of seedlings abnormally elongated or exhibiting symptoms of damping-off at 12.5 ug/ml at 30 degC incubated for 72 hr measured after 3 days under greenhouse trials (reference value: 41.2%). Format: functional.

Data set [22] deals with Fusarium verticillioides. Nature of the data set: Fungicidal activity against Fusarium verticilliodes isolate YZ07 in rice seeds harvested from bakane diseased plants assessed as number of seedlings abnormally elongated or exhibiting symptoms of damping-off at 6.25 ug/ml at 30 degC incubated for 72 hr measured after 3 days under greenhouse trials (reference value: 43.2%). Format: functional.

The subject of data set [23] is Fusarium verticillioides. Nature of the data set: Fungicidal activity against Fusarium verticilliodes isolate YZ05 in rice seeds harvested from bakane diseased plants assessed as number of seedlings abnormally elongated or exhibiting symptoms of damping-off at 6.25 ug/ml at 30 degC incubated for 72 hr measured after 3 days under greenhouse trials (reference value: 33.3%). Format: functional.

For the compound `CCOC(=O)/C(C#N)=C(/N)c1ccccc1`, the Activity with Fusarium verticillioides [1] turned out to be 3.8%; in the data set on Fusarium verticillioides [2] it was 0%; with Fusarium verticillioides [3], 0%; in the data set with Fusarium verticillioides [4], 0%; with Fusarium verticillioides [5] it was 0%; in the data set with Fusarium verticillioides [6], 0.8%. The Activity in the data set on Fusarium verticillioides [7] amounted to 1.3%; with Fusarium verticillioides [8], 0%; in the data set on Fusarium verticillioides [9], 1.2%; with Fusarium verticillioides [10], 1%; with Fusarium verticillioides [11], 4.1%; in the data set on Fusarium verticillioides [12], 0%. Also, the Activity in the data set on Fusarium verticillioides [13] was 0%; in the data set on Fusarium verticillioides [14], 0%; in the data set on Fusarium verticillioides [15], 3.2%; in the data set with Oryza sativa, “Non-toxic”; with Fusarium verticillioides [16], 0%; in the data set with Fusarium verticillioides [17], 0%. The Activity in the data set on Fusarium verticillioides [18] came to 0%; in the data set with Fusarium verticillioides [19], 4.5%; with Fusarium verticillioides [20], 0%; with Fusarium verticillioides [21] it was 0%; in the data set with Fusarium verticillioides [22], 1.6%; with Fusarium verticillioides [23] it was 0.5%.
